According to patent publication US20020022022A1, “Inhibition of cell proliferation and matrix synthesis by antioxidants and NAD(P)H oxidase inhibitors” (priority 2000, published 2002):

Columns and labels:
[1] = tested on: superoxide anion (—O2^−) generation in coronary media; assay: —O2^− production in uninjured coronary media (SOD-inhibitable NBT reduction); format: cell-based, pigs; details: DETCA 10 mM
Procedure: (§1) The production of —O2^− is measured by superoxide dismutase- (SOD) or tiron-inhibitable conversion of nitroblue tetrazolium (NBT) to formazan. (20,21)
—O2^− production in coronary arteries: Coronary arteries are dissected free from adipose tissue and myocardium and then cut into ˜5 mm rings and placed in 24-well plates. Tissues are balanced in phenol-free DMEM at 37° C. in a CO2 incubator for 30 minutes with or without addition of SOD (SOD, 1000 unit/ml) or tiron (10 mM), both scavengers of —O2^− Freshly made NBT (100 mg/L in phenol-free DMEM) is added to the tissues with a gentle rocking for 3 hours. The reaction is terminated by addition of equal volume of 0.5N HCl, and tissues are rinsed twice with cold PBS. To extract formazan, tissues are pulverized in liquid nitrogen and dissolved in 100% pyridine at 80° C. for 30 minutes. After centrifugation, light absorbance is read in supernatants at 540 nm. The NBT reduction to formazan is calculated using the following formula: NBT reduction=A×V/(T×E×L) (A: absorbance; V: volume of solubilizing solution; T: time of incubation with NBT (minutes); E: extinction coefficient=0.72 mmol.mm; L: length of light travel through the solution, 10 mm). Either SOD- or tiron-inhibitable NBT reduction is calculated as measures of —O2^− production (pmol/min/mg wet weight). […]

[2] = tested on: superoxide anion (—O2^−) generation in coronary adventitia; assay: —O2^− production in uninjured coronary adventitia (SOD-inhibitable NBT reduction); format: cell-based, pigs; details: uninjured coronary adventitia; DETCA 10 mM
Procedure: as §1
—O2^− production in coronary arteries: Coronary arteries are dissected free from adipose tissue and myocardium and then cut into ˜5 mm rings and placed in 24-well plates. Tissues are balanced in phenol-free DMEM at 37° C. in a CO2 incubator for 30 minutes with or without addition of SOD (SOD, 1000 unit/ml) or tiron (10 mM), both scavengers of —O2^− Freshly made NBT (100 mg/L in phenol-free DMEM) is added to the tissues with a gentle rocking for 3 hours. The reaction is terminated by addition of equal volume of 0.5N HCl, and tissues are rinsed twice with cold PBS. To extract formazan, tissues are pulverized in liquid nitrogen and dissolved in 100% pyridine at 80° C. for 30 minutes. After centrifugation, light absorbance is read in supernatants at 540 nm. The NBT reduction to formazan is calculated using the following formula: NBT reduction=A×V/(T×E×L) (A: absorbance; V: volume of solubilizing solution; T: time of incubation with NBT (minutes); E: extinction coefficient=0.72 mmol.mm; L: length of light travel through the solution, 10 mm). Either SOD- or tiron-inhibitable NBT reduction is calculated as measures of —O2^− production (pmol/min/mg wet weight). To determine the pathways mediating —O2^− production, several inhibitors are used in the experiments, including diphenyleneiodonium (DPI, 100 μM), rotenone (ROT, 50 μM), oxypurinol (OXY, 300 μM), N^ω-nitro-L-arginine methyl ester (L-NAME, 1 mM), and diethyldithio-carbamic acid (DETCA, 10 mM). The n value represents the number of vascular rings obtained from at least 3 animals per experimental condition.

CCN(CC)C(=S)S [DETCA, diethyldithio-carbamic acid]
—O2^− generation in media with SOD inhibitor [1]: 36.3 ± 8.2 pmol/mg/min
—O2^− generation in adventitia with SOD inhibitor [2]: 19.6 ± 2.5 pmol/mg/min
